Assay results published in ChEMBL document CHEMBL4680122, “Design, synthesis and biological evaluation of new Axl kinase inhibitors containing 1,3,4-oxadiazole acetamide moiety as novel linker” (Eur J Med Chem, 2020).
pIC50: −log10 of the molar value. Calls of active or inactive are those of the source. The calls are words filed in the database; no cut-off is given here.

Tests used:
[1] = target: T1, Tyrosine-protein kinase receptor TYRO3 (Homo sapiens, UniProt Q06418); experiment: Inhibition of Tyro3 (unknown origin)
T1 sequence (Q06418 whole entry): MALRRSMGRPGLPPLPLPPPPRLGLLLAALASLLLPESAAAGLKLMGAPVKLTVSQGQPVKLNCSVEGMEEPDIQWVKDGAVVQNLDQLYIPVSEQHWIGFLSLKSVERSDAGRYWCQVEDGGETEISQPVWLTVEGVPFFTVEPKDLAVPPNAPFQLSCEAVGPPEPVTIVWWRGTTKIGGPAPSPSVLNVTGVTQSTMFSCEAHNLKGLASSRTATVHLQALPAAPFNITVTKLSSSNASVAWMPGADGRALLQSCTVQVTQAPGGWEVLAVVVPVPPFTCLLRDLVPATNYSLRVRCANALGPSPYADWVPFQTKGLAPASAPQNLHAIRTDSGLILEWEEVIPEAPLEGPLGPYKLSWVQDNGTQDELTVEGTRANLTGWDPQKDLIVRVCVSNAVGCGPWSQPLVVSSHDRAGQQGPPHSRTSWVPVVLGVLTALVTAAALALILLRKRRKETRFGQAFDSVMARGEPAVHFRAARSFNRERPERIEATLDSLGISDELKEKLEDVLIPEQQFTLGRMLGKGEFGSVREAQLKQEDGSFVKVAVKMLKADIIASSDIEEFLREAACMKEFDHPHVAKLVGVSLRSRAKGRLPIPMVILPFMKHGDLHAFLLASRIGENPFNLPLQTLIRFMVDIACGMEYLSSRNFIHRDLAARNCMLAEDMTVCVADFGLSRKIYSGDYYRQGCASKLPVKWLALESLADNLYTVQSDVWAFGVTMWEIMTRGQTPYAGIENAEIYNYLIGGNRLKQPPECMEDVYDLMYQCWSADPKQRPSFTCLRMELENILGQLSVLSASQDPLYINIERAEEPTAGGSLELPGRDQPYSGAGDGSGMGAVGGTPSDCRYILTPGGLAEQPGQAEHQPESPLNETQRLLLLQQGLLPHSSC

[2] = target: Vascular endothelial growth factor receptor 3 (Homo sapiens) (UniProt P35916); experiment: Inhibition of Flt4 (unknown origin) at 200 nM relative to control
MDA-MB-231 = experiment: Antiproliferative activity against human MDA-MB-231 cells measured after 72 hrs by MTT assay; assay type: functional, cell-based
[3] = target: Macrophage-stimulating protein receptor (Homo sapiens) (UniProt Q04912); experiment: Inhibition of Ron (unknown origin) at 200 nM relative to control
NCI-H1975 = experiment: Antiproliferative activity against human NCI-H1975 cells measured after 72 hrs by MTT assay; assay type: functional, cell-based; conditions: NCI-H1975, 72 h
[4] = target: Aurora kinase B (Homo sapiens) (UniProt Q96GD4); experiment: Inhibition of Aurora-B (unknown origin) at 200 nM relative to control
[5] = target: Platelet-derived growth factor receptor beta (Homo sapiens, UniProt P09619); experiment: Inhibition of human His-tagged PDGFRB cytoplasmic domain expressed in baculovirus expression system using peptide substrate measured after 1 hr by mobility shift assay
[6] = target: Tyrosine-protein kinase receptor UFO (Homo sapiens) (UniProt P30530); conditions: dose 100.0 nM, time 1.0 hrs
[7] = target: Vascular endothelial growth factor receptor 2 (Homo sapiens, UniProt P35968); experiment: Inhibition of human N-terminal GST-fused KDR cytoplasmic domain (790 to 1356 residues) expressed in baculovirus expression system using CSKtide as substrate measured after 1 hr by mobility shift assay
MCF7 [8] = experiment: Potency index, ratio of foretinib IC50 to test compound IC50 for antiproliferative activity against human MCF7 cells; assay type: functional
MCF7 [9] = experiment: Antiproliferative activity against human MCF7 cells measured after 72 hrs by MTT assay; assay type: functional, cell-based; conditions: MCF7, 72 h
[10] = target: T2, Tyrosine-protein kinase receptor UFO (Homo sapiens, UniProt P30530); experiment: Inhibition of human N-terminal GST-fused Axl cytoplasmic domain (464 to 885 residues) expressed in baculovirus expression system using CSKtide as substrate measured after 1 hr by mobility shift assay
T2 sequence (P30530 whole entry): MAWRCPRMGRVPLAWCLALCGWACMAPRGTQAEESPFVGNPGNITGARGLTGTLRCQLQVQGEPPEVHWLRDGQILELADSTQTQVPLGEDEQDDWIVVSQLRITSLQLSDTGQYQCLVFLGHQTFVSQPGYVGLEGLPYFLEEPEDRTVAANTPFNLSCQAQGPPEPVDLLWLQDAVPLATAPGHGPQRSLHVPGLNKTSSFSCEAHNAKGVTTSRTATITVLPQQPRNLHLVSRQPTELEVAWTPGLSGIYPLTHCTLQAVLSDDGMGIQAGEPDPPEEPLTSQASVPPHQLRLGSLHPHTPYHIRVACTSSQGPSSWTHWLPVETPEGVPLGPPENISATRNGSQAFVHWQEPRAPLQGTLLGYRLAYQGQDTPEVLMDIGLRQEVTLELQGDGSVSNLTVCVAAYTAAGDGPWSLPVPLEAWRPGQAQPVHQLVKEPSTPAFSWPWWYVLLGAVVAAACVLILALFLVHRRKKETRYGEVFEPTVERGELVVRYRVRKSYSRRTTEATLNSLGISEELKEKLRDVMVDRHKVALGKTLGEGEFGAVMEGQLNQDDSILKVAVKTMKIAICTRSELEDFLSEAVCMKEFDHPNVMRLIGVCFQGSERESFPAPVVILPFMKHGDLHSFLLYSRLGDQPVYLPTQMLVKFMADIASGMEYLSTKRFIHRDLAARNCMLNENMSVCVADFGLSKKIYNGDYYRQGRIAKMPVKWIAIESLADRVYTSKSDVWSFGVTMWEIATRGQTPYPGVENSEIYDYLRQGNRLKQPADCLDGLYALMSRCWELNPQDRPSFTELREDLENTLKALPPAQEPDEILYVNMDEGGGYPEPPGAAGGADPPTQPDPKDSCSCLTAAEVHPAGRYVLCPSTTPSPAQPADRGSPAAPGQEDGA

A549 [11] = experiment: cells; conditions: Homo sapiens, A549, 72 h
Description: Antiproliferative activity against human A549 cells measured after 72 hrs by MTT assay

A549 [12] = experiment: Potency index, ratio of foretinib IC50 to test compound IC50 for antiproliferative activity against human A549 cells; assay type: functional
HT-29 = experiment: Potency index, ratio of foretinib IC50 to test compound IC50 for antiproliferative activity against human HT-29 cells; assay type: functional

Chain of Macrophage-stimulating protein receptor (Homo sapiens) (Q04912 25-304 limits assumed): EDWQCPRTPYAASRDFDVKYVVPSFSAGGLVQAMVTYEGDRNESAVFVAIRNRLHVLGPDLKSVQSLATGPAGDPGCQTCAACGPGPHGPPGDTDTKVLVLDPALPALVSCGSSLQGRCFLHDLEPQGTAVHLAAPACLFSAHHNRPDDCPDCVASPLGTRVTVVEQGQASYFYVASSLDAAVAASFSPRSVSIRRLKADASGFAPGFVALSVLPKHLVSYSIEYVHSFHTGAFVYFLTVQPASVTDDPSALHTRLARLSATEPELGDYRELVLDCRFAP
Chain of Macrophage-stimulating protein receptor (Homo sapiens) (Q04912 310-1400 limits assumed): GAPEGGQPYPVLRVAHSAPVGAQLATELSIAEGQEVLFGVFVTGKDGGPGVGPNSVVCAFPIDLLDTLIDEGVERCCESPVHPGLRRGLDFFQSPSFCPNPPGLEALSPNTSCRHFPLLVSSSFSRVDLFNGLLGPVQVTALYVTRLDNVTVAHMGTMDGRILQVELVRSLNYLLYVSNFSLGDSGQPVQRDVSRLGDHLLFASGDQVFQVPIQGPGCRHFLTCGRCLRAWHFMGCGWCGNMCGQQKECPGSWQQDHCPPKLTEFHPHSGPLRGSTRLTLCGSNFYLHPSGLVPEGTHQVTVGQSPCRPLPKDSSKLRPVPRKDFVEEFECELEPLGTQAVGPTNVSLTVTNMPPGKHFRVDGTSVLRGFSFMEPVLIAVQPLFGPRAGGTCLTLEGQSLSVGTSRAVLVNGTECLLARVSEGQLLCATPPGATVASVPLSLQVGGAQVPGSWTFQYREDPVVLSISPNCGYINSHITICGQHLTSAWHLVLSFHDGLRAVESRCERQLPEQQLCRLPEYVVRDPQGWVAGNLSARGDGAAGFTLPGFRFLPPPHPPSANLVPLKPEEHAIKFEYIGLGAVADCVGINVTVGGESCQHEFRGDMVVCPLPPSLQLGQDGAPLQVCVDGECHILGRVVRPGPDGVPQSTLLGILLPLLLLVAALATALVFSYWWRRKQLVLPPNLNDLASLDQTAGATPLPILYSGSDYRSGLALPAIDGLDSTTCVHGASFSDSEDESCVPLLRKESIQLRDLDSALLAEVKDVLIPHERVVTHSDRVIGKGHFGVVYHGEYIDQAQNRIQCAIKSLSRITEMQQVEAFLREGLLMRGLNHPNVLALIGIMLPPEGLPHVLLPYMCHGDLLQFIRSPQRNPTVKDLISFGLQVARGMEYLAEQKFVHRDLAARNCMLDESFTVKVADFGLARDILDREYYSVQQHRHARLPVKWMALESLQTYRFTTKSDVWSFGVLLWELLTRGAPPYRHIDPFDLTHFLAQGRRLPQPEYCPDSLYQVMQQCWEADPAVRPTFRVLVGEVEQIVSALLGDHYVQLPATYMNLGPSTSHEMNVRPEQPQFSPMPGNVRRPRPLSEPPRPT
Chain of Vascular endothelial growth factor receptor 3 (Homo sapiens) (P35916 whole entry): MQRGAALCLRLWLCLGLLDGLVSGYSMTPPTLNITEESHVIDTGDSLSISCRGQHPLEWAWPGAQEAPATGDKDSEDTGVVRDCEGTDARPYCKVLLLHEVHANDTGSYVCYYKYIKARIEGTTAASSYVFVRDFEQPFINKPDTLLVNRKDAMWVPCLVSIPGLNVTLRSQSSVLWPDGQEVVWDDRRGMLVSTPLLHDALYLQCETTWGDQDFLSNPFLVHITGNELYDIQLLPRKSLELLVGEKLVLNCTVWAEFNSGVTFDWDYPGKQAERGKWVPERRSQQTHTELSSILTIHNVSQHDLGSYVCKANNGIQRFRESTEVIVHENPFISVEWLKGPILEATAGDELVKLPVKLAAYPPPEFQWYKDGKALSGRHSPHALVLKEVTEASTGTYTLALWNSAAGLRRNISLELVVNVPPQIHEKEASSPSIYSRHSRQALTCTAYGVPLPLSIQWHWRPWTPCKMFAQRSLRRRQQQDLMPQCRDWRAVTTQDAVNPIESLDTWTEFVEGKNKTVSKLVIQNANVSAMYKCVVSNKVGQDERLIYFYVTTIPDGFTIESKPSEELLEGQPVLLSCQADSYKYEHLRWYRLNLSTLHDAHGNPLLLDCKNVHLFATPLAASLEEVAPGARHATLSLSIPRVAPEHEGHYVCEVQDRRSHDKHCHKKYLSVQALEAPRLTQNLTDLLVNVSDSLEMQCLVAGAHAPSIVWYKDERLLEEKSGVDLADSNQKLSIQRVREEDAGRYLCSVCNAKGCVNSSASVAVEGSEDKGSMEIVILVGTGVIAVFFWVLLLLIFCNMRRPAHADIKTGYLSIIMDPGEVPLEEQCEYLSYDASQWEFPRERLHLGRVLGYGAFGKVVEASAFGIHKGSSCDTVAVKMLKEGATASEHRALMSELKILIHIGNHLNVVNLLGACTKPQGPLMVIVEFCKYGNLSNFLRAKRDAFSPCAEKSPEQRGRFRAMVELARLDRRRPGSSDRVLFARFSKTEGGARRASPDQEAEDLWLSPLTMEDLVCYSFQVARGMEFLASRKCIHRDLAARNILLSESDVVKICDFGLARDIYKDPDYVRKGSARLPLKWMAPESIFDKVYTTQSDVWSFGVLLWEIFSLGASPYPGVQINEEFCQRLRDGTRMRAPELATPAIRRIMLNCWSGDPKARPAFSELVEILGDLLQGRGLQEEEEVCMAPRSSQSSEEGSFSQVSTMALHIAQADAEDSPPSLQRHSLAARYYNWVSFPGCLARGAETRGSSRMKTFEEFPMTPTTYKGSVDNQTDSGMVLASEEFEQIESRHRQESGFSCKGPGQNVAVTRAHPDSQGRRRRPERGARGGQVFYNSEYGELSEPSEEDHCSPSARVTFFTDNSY
Chain of Aurora kinase B (Homo sapiens) (Q96GD4 whole entry, the tested form may be a part): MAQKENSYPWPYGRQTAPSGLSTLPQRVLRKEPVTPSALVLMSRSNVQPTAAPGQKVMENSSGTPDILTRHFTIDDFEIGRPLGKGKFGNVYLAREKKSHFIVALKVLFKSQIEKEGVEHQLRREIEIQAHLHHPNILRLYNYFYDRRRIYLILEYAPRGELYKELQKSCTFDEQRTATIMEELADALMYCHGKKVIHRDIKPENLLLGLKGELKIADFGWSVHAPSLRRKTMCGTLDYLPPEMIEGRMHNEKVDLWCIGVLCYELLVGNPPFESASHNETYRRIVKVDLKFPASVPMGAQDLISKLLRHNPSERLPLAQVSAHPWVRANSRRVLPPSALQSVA
Chain of Vascular endothelial growth factor receptor 2 (P35968 whole entry, the tested form may be a part): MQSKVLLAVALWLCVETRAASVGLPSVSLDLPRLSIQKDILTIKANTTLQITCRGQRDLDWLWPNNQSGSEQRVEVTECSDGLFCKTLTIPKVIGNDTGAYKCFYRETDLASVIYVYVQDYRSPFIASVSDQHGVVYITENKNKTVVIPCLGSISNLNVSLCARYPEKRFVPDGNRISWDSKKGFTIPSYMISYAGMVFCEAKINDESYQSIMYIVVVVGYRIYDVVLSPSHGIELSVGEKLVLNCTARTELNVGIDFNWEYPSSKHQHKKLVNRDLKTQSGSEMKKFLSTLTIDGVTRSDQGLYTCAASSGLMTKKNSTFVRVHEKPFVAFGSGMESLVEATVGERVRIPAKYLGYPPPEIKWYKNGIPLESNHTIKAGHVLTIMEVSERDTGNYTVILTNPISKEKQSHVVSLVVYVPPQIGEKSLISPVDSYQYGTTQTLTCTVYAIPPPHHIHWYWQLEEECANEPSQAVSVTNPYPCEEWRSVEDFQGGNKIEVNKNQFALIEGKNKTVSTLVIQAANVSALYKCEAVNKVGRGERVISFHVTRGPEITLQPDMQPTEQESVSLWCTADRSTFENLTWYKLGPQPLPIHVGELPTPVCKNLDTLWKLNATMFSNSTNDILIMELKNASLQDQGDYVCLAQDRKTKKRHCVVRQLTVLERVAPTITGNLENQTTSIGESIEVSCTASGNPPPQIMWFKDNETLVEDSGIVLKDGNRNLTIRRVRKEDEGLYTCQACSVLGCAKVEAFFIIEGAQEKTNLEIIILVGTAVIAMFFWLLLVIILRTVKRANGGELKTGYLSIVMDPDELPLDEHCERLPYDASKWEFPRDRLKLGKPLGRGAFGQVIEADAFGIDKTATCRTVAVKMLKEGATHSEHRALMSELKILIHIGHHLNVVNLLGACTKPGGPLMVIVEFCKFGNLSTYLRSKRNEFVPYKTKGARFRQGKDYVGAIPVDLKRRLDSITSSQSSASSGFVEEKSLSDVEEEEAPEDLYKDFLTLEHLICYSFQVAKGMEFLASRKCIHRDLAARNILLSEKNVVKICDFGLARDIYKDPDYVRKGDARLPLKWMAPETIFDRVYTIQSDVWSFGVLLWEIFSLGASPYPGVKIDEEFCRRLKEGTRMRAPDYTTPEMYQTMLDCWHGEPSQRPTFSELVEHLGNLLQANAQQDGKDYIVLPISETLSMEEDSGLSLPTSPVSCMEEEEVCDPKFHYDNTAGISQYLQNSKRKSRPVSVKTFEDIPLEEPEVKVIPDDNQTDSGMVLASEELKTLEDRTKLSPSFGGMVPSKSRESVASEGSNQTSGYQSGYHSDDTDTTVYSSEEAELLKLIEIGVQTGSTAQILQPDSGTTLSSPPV

pIC50 [1]: < 6.70
inhibition [2]: > 80%
inhibition [3]: > 80%
pIC50 (NCI-H1975): 7.00
inhibition [4]: > 80%
pIC50 [5]: < 6.70
inhibition [6]: 93.7%
pIC50 [7]: 7.09
pIC50 (MCF7 [9]): 6.00
pIC50 [10]: 8.00
pIC50 (A549 [11]): 7.28
SMILES: COc1cc2c(Oc3ccc(NC(=O)C4(c5nnc(-c6ccc(F)cc6)o5)CC4)cc3F)ccnc2cc1OCCCN1CCCCC1
Activity (MDA-MB-231): Active
Ratio IC50 (MCF7 [8]): 2
Ratio IC50 (A549 [12]): 1.9
Ratio IC50 (HT-29): 1.57
